How the values were obtained:
[1] = test system: A549; assay: In vitro rate of inhibition of A-549 tumor cell growth at 10E-4 mol/L; format: functional, Homo sapiens; conditions: at 100 µM
[2] = test system: A549; assay: In vitro rate of inhibition of A-549 tumor cell growth at 10E-5 mol/L; format: functional, Homo sapiens; conditions: at 10 µM
[3] = test system: A549; assay: In vitro rate of inhibition of A-549 tumor cell growth at 10E-7 mol/L; format: functional, Homo sapiens; conditions: at 0.1 µM
[4] = test system: A549; assay: In vitro rate of inhibition of A-549 tumor cell growth at 10E-8 mol/L; format: functional, Homo sapiens; conditions: at 0.01 µM
[5] = test system: P388; assay: In vitro rate of inhibition of P388 tumor cell growth at 10E-5 mol/L; format: functional, Mus musculus; conditions: at 10 µM
[6] = test system: P388; assay: In vitro rate of inhibition of P388 tumor cell growth at 10E-6 mol/L; format: functional, Mus musculus; conditions: at 1 µM
[7] = test system: P388; assay: In vitro rate of inhibition of P388 tumor cell growth at 10E-7 mol/L; format: functional, Mus musculus; conditions: at 0.1 µM
[8] = test system: P388; assay: In vitro rate of inhibition of P388 tumor cell growth at 10E-8 mol/L; format: functional, Mus musculus; conditions: at 0.01 µM
[9] = test system: A549; assay: In vitro rate of inhibition of A-549 tumor cell growth at 10E-6 mol/L; format: functional, Homo sapiens; conditions: at 1 µM
[10] = test system: P388; assay: In vitro rate of inhibition of P388 tumor cell growth at 10E-4 mol/L; format: functional, Mus musculus; conditions: at 100 µM

For `CCCCCCCCCCCCC/C=C/[C@@H](O)[C@H](CO)NC(C)=O`, the Rate of inhibition [1] was 24.6%, the Rate of inhibition [2] was 9.2% and the Rate of inhibition [3] was 7.7%. For the same molecule, the Rate of inhibition [4] was 12.3%, the Rate of inhibition [5] was 4.7% and the Rate of inhibition [6] was 3.1%. It also gave a Rate of inhibition [7] of 3.1%, a Rate of inhibition [8] of 0% and a Rate of inhibition [9] of 6.2%. The Rate of inhibition [10] was 73.4%.
`CCCC1=NN(C(=O)OC)C(CCC)N=N1` (stereo not given) showed a Rate of inhibition [1] of 59.6%, a Rate of inhibition [2] of 0% and a Rate of inhibition [3] of 0%. It also gave a Rate of inhibition [4] of 0%, a Rate of inhibition [5] of 17.3% and a Rate of inhibition [6] of 4.5%. The Rate of inhibition [7] was 1.7%, the Rate of inhibition [8] was 3.3% and the Rate of inhibition [9] was 0%. The Rate of inhibition [10] was 90.4%.
For `CC1=NN(C(=O)Nc2ccccc2)C(C)=NN1C(=O)Nc1ccccc1`, the Rate of inhibition [1] was 76.5%, the Rate of inhibition [2] was 77.9% and the Rate of inhibition [3] was 60.3%. For the same molecule, the Rate of inhibition [4] was 50%, the Rate of inhibition [5] was 90.6% and the Rate of inhibition [6] was 90.6%. The Rate of inhibition [7] was 87.5%, the Rate of inhibition [8] was 81.3% and the Rate of inhibition [9] was 79.4%. It also gave a Rate of inhibition [10] of 89.1%.
`Clc1ccc(Cc2nnc(Cc3ccc(Cl)cc3)nn2)cc1` gave a Rate of inhibition [1] of 65.8%, a Rate of inhibition [2] of 57.1% and a Rate of inhibition [3] of 1.1%. The Rate of inhibition [4] was 8.7%, the Rate of inhibition [5] was 29.1% and the Rate of inhibition [6] was 9.3%. It also gave a Rate of inhibition [7] of 8.9%, a Rate of inhibition [8] of 0% and a Rate of inhibition [9] of 13.1%. For the same molecule, the Rate of inhibition [10] was 58.4%.
`CCCC1=NNC(CCC)N=N1` (stereo not given) showed a Rate of inhibition [1] of 61.7%, a Rate of inhibition [2] of 0.5% and a Rate of inhibition [3] of 0%. For the same molecule, the Rate of inhibition [4] was 0%, the Rate of inhibition [5] was 0% and the Rate of inhibition [6] was 0%. The Rate of inhibition [7] was 0%, the Rate of inhibition [8] was 0% and the Rate of inhibition [9] was 0%. The Rate of inhibition [10] was 42.2%.
`Clc1cccc(-c2nnc(-c3cccc(Cl)c3)nn2)c1` gave a Rate of inhibition [1] of 0%, a Rate of inhibition [2] of 0% and a Rate of inhibition [3] of 0%. For the same molecule, the Rate of inhibition [4] was 0%, the Rate of inhibition [5] was 26.5% and the Rate of inhibition [6] was 33.2%. It also gave a Rate of inhibition [7] of 13.5%, a Rate of inhibition [8] of 4.3% and a Rate of inhibition [9] of 0%. It also gave a Rate of inhibition [10] of 40.3%.
With `Cc1ccc(-c2nnc(-c3ccc(C)cc3)nn2)cc1` the Rate of inhibition [1] was 90.3%, the Rate of inhibition [2] was 17% and the Rate of inhibition [3] was 0%. It also gave a Rate of inhibition [4] of 0%, a Rate of inhibition [5] of 8.3% and a Rate of inhibition [6] of 4.4%. For the same molecule, the Rate of inhibition [7] was 2.4%, the Rate of inhibition [8] was 4.5% and the Rate of inhibition [9] was 0%. For the same molecule, the Rate of inhibition [10] was 56.4%.
`CCCC1=NN(C(=O)Nc2ccccc2)C(CCC)=NN1C(=O)Nc1ccccc1` was tested, and the Rate of inhibition [1] was 56.6%, the Rate of inhibition [2] was 78.3% and the Rate of inhibition [3] was 6.1%. For the same molecule, the Rate of inhibition [4] was 2.5%, the Rate of inhibition [5] was 61.5% and the Rate of inhibition [6] was 22.8%. For the same molecule, the Rate of inhibition [7] was 4.4%, the Rate of inhibition [8] was 4.1% and the Rate of inhibition [9] was 48.3%. The Rate of inhibition [10] was 85.4%.
In the case of `CC(=O)N1NC(C)N(C(C)=O)NC1C` (stereo not given), the Rate of inhibition [1] is reported as 68.5%, the Rate of inhibition [2] is reported as 6% and the Rate of inhibition [3] is reported as 7.4%. The Rate of inhibition [4] was 3.2%, the Rate of inhibition [5] was 0.1% and the Rate of inhibition [6] was 4.3%. The Rate of inhibition [7] was 0%, the Rate of inhibition [8] was 0% and the Rate of inhibition [9] was 3.6%. For the same molecule, the Rate of inhibition [10] was 14.5%.
For `CCCC1=NN(C(=O)Nc2cccc(Cl)c2)C(CCC)=NN1C(=O)Nc1cccc(Cl)c1`, the Rate of inhibition [1] was 91.3%, the Rate of inhibition [2] was 88.4% and the Rate of inhibition [3] was 10.8%. For the same molecule, the Rate of inhibition [4] was 0%, the Rate of inhibition [5] was 58.7% and the Rate of inhibition [6] was 0%. It also gave a Rate of inhibition [7] of 0%, a Rate of inhibition [8] of 0% and a Rate of inhibition [9] of 59.6%. For the same molecule, the Rate of inhibition [10] was 84.4%.
`CC1=NNC(C)N=N1` (stereo not given) gave a Rate of inhibition [1] of 67.7%, a Rate of inhibition [2] of 4.8% and a Rate of inhibition [3] of 5.5%. For the same molecule, the Rate of inhibition [4] was 0%, the Rate of inhibition [5] was 19.7% and the Rate of inhibition [6] was 9.2%. For the same molecule, the Rate of inhibition [7] was 15.9%, the Rate of inhibition [8] was 0% and the Rate of inhibition [9] was 0%. It also gave a Rate of inhibition [10] of 100%.
`FC(F)(F)c1ccc(-c2nnc(-c3ccc(C(F)(F)F)cc3)nn2)cc1` was tested, and the Rate of inhibition [1] was 40.2%, the Rate of inhibition [2] was 2.5% and the Rate of inhibition [3] was 0%. It also gave a Rate of inhibition [4] of 0%, a Rate of inhibition [5] of 44.4% and a Rate of inhibition [6] of 33%. It also gave a Rate of inhibition [7] of 19.5%, a Rate of inhibition [8] of 9.7% and a Rate of inhibition [9] of 0%. The Rate of inhibition [10] was 51.5%.
With `CC1=NN(C(=O)Nc2cccc(Cl)c2)C(C)=NN1C(=O)Nc1cccc(Cl)c1` the Rate of inhibition [1] was 21.2%, the Rate of inhibition [2] was 7.6% and the Rate of inhibition [3] was 0%. It also gave a Rate of inhibition [4] of 0%, a Rate of inhibition [5] of 29.7% and a Rate of inhibition [6] of 6.3%. For the same molecule, the Rate of inhibition [7] was 0%, the Rate of inhibition [8] was 0% and the Rate of inhibition [9] was 0%. The Rate of inhibition [10] was 85.9%.
`CC1=NN(C(=O)OCCC(C)C)C(C)N=N1` (stereo not given) gave a Rate of inhibition [1] of 0%, a Rate of inhibition [2] of 0% and a Rate of inhibition [3] of 0%. It also gave a Rate of inhibition [4] of 0%, a Rate of inhibition [5] of 17.8% and a Rate of inhibition [6] of 13.6%. It also gave a Rate of inhibition [7] of 0.8%, a Rate of inhibition [8] of 0% and a Rate of inhibition [9] of 0%. For the same molecule, the Rate of inhibition [10] was 28.8%.
Molecule `CCCC1=NN(C(=O)Nc2cccc(C)c2)C(CCC)=NN1C(=O)Nc1cccc(C)c1` has a Rate of inhibition [1] of 93.3%, a Rate of inhibition [2] of 84.2% and a Rate of inhibition [3] of 4%. For the same molecule, the Rate of inhibition [4] was 0%, the Rate of inhibition [5] was 63.9% and the Rate of inhibition [6] was 0%. It also gave a Rate of inhibition [7] of 4.8%, a Rate of inhibition [8] of 0% and a Rate of inhibition [9] of 74.1%. For the same molecule, the Rate of inhibition [10] was 81.6%.
`CCOC(=O)c1cccc(NC(=O)N2N=C(C)N(C(=O)Nc3cccc(C(=O)OCC)c3)N=C2C)c1` gave a Rate of inhibition [1] of 67%, a Rate of inhibition [2] of 12.5% and a Rate of inhibition [3] of 5.7%. The Rate of inhibition [4] was 1.1%, the Rate of inhibition [5] was 0% and the Rate of inhibition [6] was 0%. It also gave a Rate of inhibition [7] of 0%, a Rate of inhibition [8] of 0% and a Rate of inhibition [9] of 6.8%. The Rate of inhibition [10] was 46.3%.
`Clc1ccc(-c2nnc(-c3ccc(Cl)cc3)nn2)cc1` gave a Rate of inhibition [1] of 0%, a Rate of inhibition [2] of 0% and a Rate of inhibition [3] of 0%. The Rate of inhibition [4] was 0%, the Rate of inhibition [5] was 35.1% and the Rate of inhibition [6] was 29%. For the same molecule, the Rate of inhibition [7] was 19.4%, the Rate of inhibition [8] was 16.1% and the Rate of inhibition [9] was 0%. For the same molecule, the Rate of inhibition [10] was 52.3%.
With `CCCCC1NN(C(C)=O)C(CCCC)NN1C(C)=O` (stereo not given) the Rate of inhibition [1] was 47.6%, the Rate of inhibition [2] was 13.1% and the Rate of inhibition [3] was 4.8%. It also gave a Rate of inhibition [4] of 0%, a Rate of inhibition [5] of 0% and a Rate of inhibition [6] of 0%. For the same molecule, the Rate of inhibition [7] was 0%, the Rate of inhibition [8] was 0% and the Rate of inhibition [9] was 6.4%. For the same molecule, the Rate of inhibition [10] was 37.9%.
In the case of `CCCOC(=O)N1C(c2ccccc2)=NN=C(c2ccccc2)N1C(=O)OCCC`, the Rate of inhibition [1] is reported as 23.4%, the Rate of inhibition [2] is reported as 29.8% and the Rate of inhibition [3] is reported as 0%. It also gave a Rate of inhibition [4] of 0%, a Rate of inhibition [5] of 54.8% and a Rate of inhibition [6] of 4.5%. For the same molecule, the Rate of inhibition [7] was 4.3%, the Rate of inhibition [8] was 2.5% and the Rate of inhibition [9] was 0.5%. For the same molecule, the Rate of inhibition [10] was 80.9%.
With `CCCC1=NN(C(=O)OCCC(C)C)C(CCC)N=N1` (stereo not given) the Rate of inhibition [1] was 89.4%, the Rate of inhibition [2] was 0% and the Rate of inhibition [3] was 0%. The Rate of inhibition [4] was 0%, the Rate of inhibition [5] was 14.3% and the Rate of inhibition [6] was 6.9%. The Rate of inhibition [7] was 7.3%, the Rate of inhibition [8] was 9.9% and the Rate of inhibition [9] was 0%. It also gave a Rate of inhibition [10] of 83.5%.
For `COc1ccccc1NC(=O)N1N=C(C)N(C(=O)Nc2ccccc2OC)N=C1C`, the Rate of inhibition [1] was 80%, the Rate of inhibition [2] was 0% and the Rate of inhibition [3] was 0%. For the same molecule, the Rate of inhibition [4] was 0%, the Rate of inhibition [5] was 17.2% and the Rate of inhibition [6] was 1.6%. For the same molecule, the Rate of inhibition [7] was 0%, the Rate of inhibition [8] was 0% and the Rate of inhibition [9] was 0%. For the same molecule, the Rate of inhibition [10] was 59.4%.
For `Clc1ccccc1-c1nnc(-c2ccccc2Cl)nn1` [CLOFENTEZINE], the Rate of inhibition [1] was 0%, the Rate of inhibition [2] was 0% and the Rate of inhibition [3] was 0%. For the same molecule, the Rate of inhibition [4] was 0%, the Rate of inhibition [5] was 2.8% and the Rate of inhibition [6] was 5.6%. For the same molecule, the Rate of inhibition [7] was 14.6%, the Rate of inhibition [8] was 12.6% and the Rate of inhibition [9] was 0%. For the same molecule, the Rate of inhibition [10] was 8.2%.

Reference: ChEMBL document CHEMBL1147590, “Synthesis and antitumor activity of s-tetrazine derivatives” (Bioorg Med Chem Lett, 2004)
